From patent US20230270139A1, “COMPOSITIONS TO PROMOTE SWALLOWING SAFETY AND EFFICIENCY” (SOCIETE DES PRODUITS NESTLE S.A., priority 2020, published 2023)

Target: TRPA1 (Homo sapiens, UniProt O75762)
Experiment: Synergy of cinnamaldehyde and zinc on pharmacological activity of TRPA1, in vitro
Description: The trigeminal ingredient may comprise cinnamaldehyde and zinc. The combination provides a minimal flavor impact and is effective to promote a swallowing reflex. Cinnamaldehyde and zinc have a synergy on the pharmacological activity of TRPA1. Using this synergy, the effective amount of cinnamaldehyde can be decreased by supplementing the cinnamaldehyde with small amount of zinc. Consequently, the combination of cinnamaldehyde and zinc can promote a swallowing reflex at concentrations in food that are tolerable both in flavor/taste and in the gastrointestinal tract. Moreover, the synergy only requires a low concentration of zinc (in vitro<1 μM).

Sequence of TRPA1 (O75762 whole entry, species assumed): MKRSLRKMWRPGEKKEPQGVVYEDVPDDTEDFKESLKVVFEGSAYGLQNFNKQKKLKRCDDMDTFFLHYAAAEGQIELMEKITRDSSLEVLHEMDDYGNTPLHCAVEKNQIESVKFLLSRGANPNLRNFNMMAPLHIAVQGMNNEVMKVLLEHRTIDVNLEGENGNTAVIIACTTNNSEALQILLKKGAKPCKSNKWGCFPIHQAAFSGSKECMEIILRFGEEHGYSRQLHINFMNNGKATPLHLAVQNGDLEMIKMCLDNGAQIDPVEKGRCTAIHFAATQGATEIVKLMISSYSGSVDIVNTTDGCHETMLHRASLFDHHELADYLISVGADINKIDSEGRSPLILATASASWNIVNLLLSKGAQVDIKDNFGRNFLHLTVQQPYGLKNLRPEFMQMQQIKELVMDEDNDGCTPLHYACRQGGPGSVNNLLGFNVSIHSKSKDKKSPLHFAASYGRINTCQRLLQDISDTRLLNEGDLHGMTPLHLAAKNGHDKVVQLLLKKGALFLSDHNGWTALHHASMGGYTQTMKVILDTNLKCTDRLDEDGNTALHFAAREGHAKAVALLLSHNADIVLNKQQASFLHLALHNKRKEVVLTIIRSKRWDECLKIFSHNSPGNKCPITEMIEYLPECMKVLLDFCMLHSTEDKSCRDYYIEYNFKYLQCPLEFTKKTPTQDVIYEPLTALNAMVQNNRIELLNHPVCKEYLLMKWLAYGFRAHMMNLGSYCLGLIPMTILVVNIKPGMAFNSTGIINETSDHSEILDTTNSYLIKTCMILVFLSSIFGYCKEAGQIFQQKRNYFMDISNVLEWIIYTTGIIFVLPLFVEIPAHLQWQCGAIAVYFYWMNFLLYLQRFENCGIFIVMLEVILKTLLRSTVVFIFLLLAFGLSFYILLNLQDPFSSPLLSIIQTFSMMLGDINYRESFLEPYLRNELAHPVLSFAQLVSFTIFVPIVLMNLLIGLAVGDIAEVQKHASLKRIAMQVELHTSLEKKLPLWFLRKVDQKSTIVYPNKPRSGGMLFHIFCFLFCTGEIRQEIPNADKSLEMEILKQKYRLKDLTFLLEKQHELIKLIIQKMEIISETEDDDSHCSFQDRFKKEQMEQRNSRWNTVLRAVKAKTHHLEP

[Zn] [zinc]
zinc concentration required for synergy with cinnamaldehyde: < 1 µM
